For 4 compounds, IC50 results are on record in ChEMBL document CHEMBL1142006, “Chemistry and biology of mercaptoacetamides as novel histone deacetylase inhibitors” (Bioorg Med Chem Lett, 2005).

The subject of one assay is PC-3. As to the kind of experiment: Antiproliferative activity against PC-3 cancer cells. Type of assay: functional, cell-based. The following applies: Homo sapiens.
The species named for a further assay is Homo sapiens. The experiment in a line: Antiproliferative activity against SQ-20B cancer cells. The following applies: Cancer cell lines. Type of assay: functional.
The subject of a further assay is MCF7. The experiment in a line: Antiproliferative activity against MCF-7 cancer cell line. Type of assay: functional, cell-based. The following applies: Homo sapiens.
In the next assay the test system is HeLa. The experiment in a line: Antiproliferative activity towards human HeLa cancer cells. The assay is classed as functional, cell-based.

A word on the IC50: it is the point on the concentration scale where inhibition reaches its midpoint. A low value points to higher potency. On to `CN(C)c1ccc(C(=O)NCCCCCNC(=O)CS)cc1`, for which the concentration for half-maximal inhibition (IC50) with PC-3 amounted to 110 µM; in the assay filed under Homo sapiens it was 100 µM; with MCF7, 125 µM; with HeLa it was 108 µM.
In the same order, the values of `O=C(CS)NCCCCCC(=O)Nc1cccc2cccnc12` are 33 µM, 31 µM, 42 µM and 30 µM.
Consider `O=C(CS)NCCCCCNC(=O)c1ccc(-c2ccccc2)cc1`, for which the 50% inhibitory concentration (IC50) is 100 µM in the assay on PC-3, 130 µM in the assay filed under Homo sapiens and 80 µM in the assay on HeLa.
Regarding `O=C(CS)NCCCCCC(=O)Nc1cnc2ccccc2c1`, the IC50 in the assay with PC-3 amounted to 50 µM; in the assay listed under Homo sapiens it was 100 µM; in the assay with MCF7 it was 80 µM.
